Read-outs that look alike come from different tables or passages of the source.
Legend:
Format in all cases: biochemical
JAK1 = JAK1 (Homo sapiens (Human), UniProt P23458); test: Enzyme assay (Assay Example^a 1), JAK1; conditions: ATP 100 μM
JAK2 = JAK2 (Homo sapiens (Human), UniProt O60674); test: Enzyme assay (Assay Example^a 1), JAK2
JAK3 = JAK3 (Homo sapiens (Human), UniProt P52333); test: Enzyme assay (Assay Example^a 1), JAK3; conditions: ATP 100 μM
Tyk2 = Tyk2 (Homo sapiens (Human), UniProt P29597); test: Enzyme assay (Assay Example^a 1), Tyk2; conditions: ATP 100 μM
Tyk2, sequence (P29597 whole entry): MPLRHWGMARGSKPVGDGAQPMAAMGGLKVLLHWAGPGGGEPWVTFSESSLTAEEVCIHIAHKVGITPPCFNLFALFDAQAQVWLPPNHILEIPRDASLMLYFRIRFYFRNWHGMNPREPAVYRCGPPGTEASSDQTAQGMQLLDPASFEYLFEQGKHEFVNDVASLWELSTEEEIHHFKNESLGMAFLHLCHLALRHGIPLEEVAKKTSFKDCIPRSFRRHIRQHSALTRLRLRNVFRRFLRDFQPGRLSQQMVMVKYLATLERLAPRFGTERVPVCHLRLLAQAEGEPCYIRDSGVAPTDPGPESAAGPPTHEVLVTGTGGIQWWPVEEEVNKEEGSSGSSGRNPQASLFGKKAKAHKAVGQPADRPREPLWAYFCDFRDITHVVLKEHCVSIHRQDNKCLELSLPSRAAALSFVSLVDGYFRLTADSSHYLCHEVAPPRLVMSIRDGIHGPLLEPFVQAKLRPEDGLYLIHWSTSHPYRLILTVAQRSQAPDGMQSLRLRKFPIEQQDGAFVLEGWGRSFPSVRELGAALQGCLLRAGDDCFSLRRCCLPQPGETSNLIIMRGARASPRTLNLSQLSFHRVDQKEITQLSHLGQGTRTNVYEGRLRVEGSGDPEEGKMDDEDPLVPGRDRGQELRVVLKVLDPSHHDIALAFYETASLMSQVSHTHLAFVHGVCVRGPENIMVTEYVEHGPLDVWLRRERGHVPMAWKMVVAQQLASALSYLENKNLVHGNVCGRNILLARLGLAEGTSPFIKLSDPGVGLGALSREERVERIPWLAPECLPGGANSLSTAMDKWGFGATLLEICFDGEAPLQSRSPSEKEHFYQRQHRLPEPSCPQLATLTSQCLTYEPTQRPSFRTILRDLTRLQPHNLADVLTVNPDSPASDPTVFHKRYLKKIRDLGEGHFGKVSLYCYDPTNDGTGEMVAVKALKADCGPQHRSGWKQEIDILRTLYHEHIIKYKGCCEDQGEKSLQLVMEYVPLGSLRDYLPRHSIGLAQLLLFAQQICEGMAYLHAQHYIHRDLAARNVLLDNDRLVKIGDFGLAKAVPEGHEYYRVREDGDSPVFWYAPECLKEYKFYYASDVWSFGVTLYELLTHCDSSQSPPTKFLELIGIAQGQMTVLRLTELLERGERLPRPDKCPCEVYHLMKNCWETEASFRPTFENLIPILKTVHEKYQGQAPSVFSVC

JAK3, sequence (P52333 whole entry): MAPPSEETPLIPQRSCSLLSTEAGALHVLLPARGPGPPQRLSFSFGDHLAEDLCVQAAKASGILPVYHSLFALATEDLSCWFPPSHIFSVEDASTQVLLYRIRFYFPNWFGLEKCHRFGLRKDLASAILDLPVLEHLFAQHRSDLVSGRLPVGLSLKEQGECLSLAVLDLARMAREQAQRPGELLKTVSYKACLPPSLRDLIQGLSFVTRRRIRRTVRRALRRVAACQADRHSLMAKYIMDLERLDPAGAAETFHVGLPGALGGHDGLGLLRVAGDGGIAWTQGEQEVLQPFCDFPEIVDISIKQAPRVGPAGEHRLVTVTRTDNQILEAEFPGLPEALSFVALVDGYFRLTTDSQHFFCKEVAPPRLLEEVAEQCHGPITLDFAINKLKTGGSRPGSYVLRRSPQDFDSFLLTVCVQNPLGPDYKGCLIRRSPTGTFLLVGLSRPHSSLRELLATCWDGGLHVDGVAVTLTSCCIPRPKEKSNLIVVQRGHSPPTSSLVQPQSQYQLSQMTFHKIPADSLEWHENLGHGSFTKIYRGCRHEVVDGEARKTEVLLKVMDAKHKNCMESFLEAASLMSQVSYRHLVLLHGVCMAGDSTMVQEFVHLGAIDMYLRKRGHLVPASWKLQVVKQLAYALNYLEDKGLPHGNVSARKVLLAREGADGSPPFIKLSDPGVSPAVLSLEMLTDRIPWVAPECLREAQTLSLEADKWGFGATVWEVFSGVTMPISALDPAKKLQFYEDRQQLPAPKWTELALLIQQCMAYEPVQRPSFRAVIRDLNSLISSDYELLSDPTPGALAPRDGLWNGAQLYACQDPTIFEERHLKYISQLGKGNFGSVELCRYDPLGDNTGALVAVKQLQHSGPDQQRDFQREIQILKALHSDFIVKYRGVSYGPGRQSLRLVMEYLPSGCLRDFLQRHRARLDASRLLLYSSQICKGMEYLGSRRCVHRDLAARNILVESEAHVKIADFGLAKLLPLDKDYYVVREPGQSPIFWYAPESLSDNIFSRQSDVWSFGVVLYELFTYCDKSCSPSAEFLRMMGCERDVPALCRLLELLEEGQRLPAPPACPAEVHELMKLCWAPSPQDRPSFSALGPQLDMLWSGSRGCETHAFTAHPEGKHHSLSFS

Structure (SMILES) | IC50 (JAK1) | IC50 (JAK2; ATP 100 μM) | IC50 (JAK3) | IC50 (Tyk2) | IC50 (JAK2)
c1cc2c(ncn3nnc([C@H]4CC[C@H](CNC5CCCC5)CC4)c23)[nH]1 [compound 284, N-{[trans-4-(7H-pyrrolo[3,2-e][1,2,3]triazolo[1,5-c]pyrimidin-1-yl)cyclohexyl]methyl}cyclopentanamine] | 0.017 µM | 0.15 µM | > 1 µM | 0.32 µM | 
c1cc2c(ncn3nnc([C@H]4CC[C@H](CNCC5CC5)CC4)c23)[nH]1 [compound 285, 1-[trans-4-(7H-pyrrolo[3,2-e][1,2,3]triazolo[1,5-c]pyrimidin-1-yl)cyclohexyl]-N-(cyclopropylmethyl)methanamine] | 0.0091 µM | 0.12 µM | 0.61 µM | 0.068 µM | 
c1cc2c(ncn3nnc([C@H]4CC[C@H](CN5CCC5)CC4)c23)[nH]1 [compound 286, 1-[trans-4-(azetidin-1-ylmethyl)cyclohexyl]-7H-pyrrolo[3,2-e][1,2,3]triazolo[1,5-c]pyrimidine] | 0.0059 µM | 0.035 µM | 0.57 µM | 0.23 µM | 
c1cc2c(ncn3nnc([C@H]4CC[C@H](CN5CCCC5)CC4)c23)[nH]1 [compound 287, 1-[trans-4-(pyrrolidin-1-ylmethyl)cyclohexyl]-7H-pyrrolo[3,2-e][1,2,3]triazolo[1,5-c]pyrimidine] | 0.0065 µM | 0.077 µM | > 1 µM | 0.33 µM | 
CC1CC1NC[C@H]1CC[C@H](c2nnn3cnc4[nH]ccc4c23)CC1 (stereo partly drawn) [compound 291, N-{[trans-4-(7H-pyrrolo[3,2-e][1,2,3]triazolo[1,5-c]pyrimidin-1-yl)cyclohexyl]methyl}-2-methylcyclopropanamine] | 0.0053 µM | 0.1 µM | 0.67 µM | 0.14 µM | 
FC(F)(F)C1(NC[C@H]2CC[C@H](c3nnn4cnc5[nH]ccc5c34)CC2)CC1 [compound 292, N-{[trans-4-(7H-pyrrolo[3,2-e][1,2,3]triazolo[1,5-c]pyrimidin-1-yl)cyclohexyl]methyl}-1-(trifluoromethyl)cyclopropanamine] | 0.0027 µM | 0.017 µM | 0.39 µM | 0.27 µM | 
COCC1(NC[C@H]2CC[C@H](c3nnn4cnc5[nH]ccc5c34)CC2)CC1 [compound 293, N-{[trans-4-(7H-pyrrolo[3,2-e][1,2,3]triazolo[1,5-c]pyrimidin-1-yl)cyclohexyl]methyl}-1-(methoxymethyl)cyclopropanamine] | 0.024 µM | 0.1 µM | 0.94 µM | 0.31 µM | 
c1cc2c(ncn3nnc([C@H]4CC[C@H](CNC5COC5)CC4)c23)[nH]1 [compound 294, N-{[trans-4-(7H-pyrrolo[3,2-e][1,2,3]triazolo[1,5-c]pyrimidin-1-yl)cyclohexyl]methyl}oxetan-3-amine] | 0.022 µM | 0.12 µM | 0.48 µM | 0.34 µM | 
CC1(NC[C@H]2CC[C@H](c3nnn4cnc5[nH]ccc5c34)CC2)CC1 [compound 295, N-{[trans-4-(7H-pyrrolo[3,2-e][1,2,3]triazolo[1,5-c]pyrimidin-1-yl)cyclohexyl]methyl}-1-methylcyclopropanamine] | 0.0069 µM | 0.064 µM | 0.84 µM | 0.33 µM | 
CN(C)C[C@H]1CC[C@H](c2nnn3cnc4[nH]ccc4c23)CC1 [compound 296, 1-[trans-4-(7H-pyrrolo[3,2-e][1,2,3]triazolo[1,5-c]pyrimidin-1-yl)cyclohexyl]-N,N-dimethylmethanamine] | 0.0038 µM | 0.065 µM | 0.73 µM | 0.19 µM | 
CN(CCO)C[C@H]1CC[C@H](c2nnn3cnc4[nH]ccc4c23)CC1 [compound 297, 2-({[trans-4-(7H-pyrrolo[3,2-e][1,2,3]triazolo[1,5-c]pyrimidin-1-yl)cyclohexyl]methyl}(methyl)amino)ethanol] | 0.0095 µM | 0.1 µM | > 1 µM | 0.32 µM | 
OCCN(CCO)C[C@H]1CC[C@H](c2nnn3cnc4[nH]ccc4c23)CC1 [compound 298, 2,2′-({[trans-4-(7H-pyrrolo[3,2-e][1,2,3]triazolo[1,5-c]pyrimidin-1-yl)cyclohexyl]methyl}azanediyl)diethanol] | 0.019 µM | 0.11 µM | > 1 µM | 0.59 µM | 
CC(C)(C)OC(=O)N[C@@H]1CCN(C[C@H]2CC[C@H](c3nnn4cnc5[nH]ccc5c34)CC2)C1 [compound 299, tert-butyl ((R)-1-{[trans-4-(7H-pyrrolo[3,2-e][1,2,3]triazolo[1,5-c]pyrimidin-1-yl)cyclohexyl]methyl}pyrrolidin-3-yl)carbamate] | 0.016 µM | 0.17 µM | > 1 µM | > 1 µM | 
N#CCCN(C[C@H]1CC[C@H](c2nnn3cnc4[nH]ccc4c23)CC1)c1ccccc1 [compound 300, 3-({[trans-4-(7H-pyrrolo[3,2-e][1,2,3]triazolo[1,5-c]pyrimidin-1-yl)cyclohexyl]methyl}(phenyl)amino)propanenitrile] | 0.025 µM | 0.059 µM | 0.75 µM | > 1 µM | 
N#C[C@@H]1CCN(C[C@H]2CC[C@H](c3nnn4cnc5[nH]ccc5c34)CC2)C1 [compound 301, (R)-1-{[trans-4-(7H-pyrrolo[3,2-e][1,2,3]triazolo[1,5-c]pyrimidin-1-yl)cyclohexyl]methyl}pyrrolidine-3-carbonitrile] | 0.024 µM | 0.072 µM | 0.96 µM | > 1 µM | 
CN(CCC#N)C[C@H]1CC[C@H](c2nnn3cnc4[nH]ccc4c23)CC1 [compound 302, 3-({[trans-4-(7H-pyrrolo[3,2-e][1,2,3]triazolo[1,5-c]pyrimidin-1-yl)cyclohexyl]methyl}(methyl)amino)propanenitrile] | 0.012 µM | 0.029 µM | 0.49 µM | 0.36 µM | 
OC12CC3CC(C1)C(NC[C@H]1CC[C@H](c4nnn5cnc6[nH]ccc6c45)CC1)C(C3)C2 (stereo partly drawn) [compound 303, (1S,3R,4r,5S,7S)-4-({[trans-4-(7H-pyrrolo[3,2-e][1,2,3]triazolo[1,5-c]pyrimidin-1-yl)cyclohexyl]methyl}amino)adamantan-1-ol] | 0.057 µM | 0.35 µM | > 1 µM | > 1 µM | 
OC12CC3CC(C1)C(NC[C@H]1CC[C@H](c4nnn5cnc6[nH]ccc6c45)CC1)C(C3)C2 (stereo partly drawn) [compound 304, (1S,3R,4s,5S,7S)-4-({[trans-4-(7H-pyrrolo[3,2-e][1,2,3]triazolo[1,5-c]pyrimidin-1-yl)cyclohexyl]methyl}amino)adamantan-1-ol] | 0.049 µM | 0.27 µM | > 1 µM | > 1 µM | 
O[C@H]1CC[C@H](NC[C@H]2CC[C@H](c3nnn4cnc5[nH]ccc5c34)CC2)CC1 [compound 305, trans-4-({[trans-4-(7H-pyrrolo[3,2-e][1,2,3]triazolo[1,5-c]pyrimidin-1-yl)cyclohexyl]methyl}amino)cyclohexanol] | 0.046 µM | 0.29 µM | > 1 µM | > 1 µM | 
OCCN(C[C@H]1CC[C@H](c2nnn3cnc4[nH]ccc4c23)CC1)C1CCCCC1 [compound 306, 2-({[trans-4-(7H-pyrrolo[3,2-e][1,2,3]triazolo[1,5-c]pyrimidin-1-yl)cyclohexyl]methyl}(cyclohexyl)amino)ethanol] | 0.015 µM | 0.054 µM | > 1 µM | 0.62 µM | 
CC(C)(C)OC(=O)N[C@H]1CCN(C[C@H]2CC[C@H](c3nnn4cnc5[nH]ccc5c34)CC2)C1 [compound 307, tert-butyl ((S)-1-{[trans-4-(7H-pyrrolo[3,2-e][1,2,3]triazolo[1,5-c]pyrimidin-1-yl)cyclohexyl]methyl}pyrrolidin-3-yl)carbamate] | 0.0066 µM | 0.26 µM | > 1 µM | > 1 µM | 
Clc1ccc(C2(NC[C@H]3CC[C@H](c4nnn5cnc6[nH]ccc6c45)CC3)COC2)cc1 [compound 308, N-{[trans-4-(7H-pyrrolo[3,2-e][1,2,3]triazolo[1,5-c]pyrimidin-1-yl)cyclohexyl]methyl}-3-(4-chlorophenyl)oxetan-3-amine] | 0.0024 µM | 0.012 µM | 0.24 µM | 0.79 µM | 
OC1(c2ccc(Cl)c(C(F)(F)F)c2)CCN(C[C@H]2CC[C@H](c3nnn4cnc5[nH]ccc5c34)CC2)CC1 [compound 309, 1-{[trans-4-(7H-pyrrolo[3,2-e][1,2,3]triazolo[1,5-c]pyrimidin-1-yl)cyclohexyl]methyl}-4-[4-chloro-3-(trifluoromethyl)phenyl]piperidin-4-ol] | 0.0076 µM |  | > 1 µM | 0.31 µM | 0.097 µM
N#CC1(c2ccccc2)CCN(C[C@H]2CC[C@H](c3nnn4cnc5[nH]ccc5c34)CC2)CC1 [compound 310, 1-{[trans-4-(7H-pyrrolo[3,2-e][1,2,3]triazolo[1,5-c]pyrimidin-1-yl)cyclohexyl]methyl}-4-phenylpiperidine-4-carbonitrile] | 0.071 µM | 0.38 µM | > 1 µM | > 1 µM | 
CC(C)(O)C1CCN(C[C@H]2CC[C@H](c3nnn4cnc5[nH]ccc5c34)CC2)CC1 [compound 311, 2-(1-{[trans-4-(7H-pyrrolo[3,2-e][1,2,3]triazolo[1,5-c]pyrimidin-1-yl)cyclohexyl]methyl}piperidin-4-yl)propan-2-ol] | 0.025 µM | 0.16 µM | > 1 µM | 0.94 µM | 
N#CCCN1CCN(C[C@H]2CC[C@H](c3nnn4cnc5[nH]ccc5c34)CC2)CC1 [compound 314, 3-(4-{[trans-4-(7H-pyrrolo[3,2-e][1,2,3]triazolo[1,5-c]pyrimidin-1-yl)cyclohexyl]methyl}piperazin-1-yl)propanenitrile] | 0.008 µM | 0.19 µM | > 1 µM | 0.75 µM | 

From patent US9216999B2, “Substituted pyrrolo[2,3-h][1,6]naphthyridines and compositions thereof as JAK inhibitors” (priority 2011, dated 2015)
